Test results: patent publication US12599562B2, “Nanocrystal microparticles of poorly soluble drugs and methods of production and use thereof” (The Board of Regents of the University of Oklahoma, priority 2017, dated 2026)
In brackets after ≈: the same amount, converted by molar mass.

What was measured:
[1] = Dissolution profile (cumulative percentage of SHetA2 dissolved); type: physicochemical; details: size range 2.82-4.46 μm; level reached (NCs and NC-MPs rising until 5 h)
From the text: Cumulative percentage dissolved SHetA2 from unprocessed SHetA2, SHetA2 NCs, SHetA2 MPs, and SHetA2 NC-MPs.
Dissolution Profile of SHetA2 NC-MPs, Unprocessed SHetA2, and Spray Dried SHetA2 MPs of Size Range 2.82-4.46 μm
The mean cumulative percentage of SHetA2 dissolved versus time data for SHetA2 NCs, SHetA2 NC-MPs, spray dried SHetA2 MPs, and unprocessed SHetA2 is shown in FIG. 9. MPs in sizes 2.82-4.46 μm were studied, because the particles in this size range are deposited in the alveolar region of the lungs. […] The concentration of SHetA2 increased at a constant rate for SHetA2 NCs and SHetA2 NC-MPs until 5 h. […] In the case of spray dried SHetA2 MPs, there was a prompt release within the first 15 min, then SHetA2 concentration increased slowly until leveling at a cumulative percentage of 21.19±4.40%. In contrast, the unprocessed SHetA2 dissolved only 3.51±0.9%.

[2] = Apparent maximum solubility of SHetA2 NCs and SHetA2 NC-MPs in PBS containing 0.05% SDS; type: physicochemical; details: aqueous with cosolvent or surfactant or cyclodextrin, thermodynamic from solid, at first 5 min, read-out: apparent maximum solubility (highest drug solubility)
Protocol: SHetA2 NCs, SHetA2 MPs, and SHetA2 NC-MPs in PBS containing 0.05% SDS.
Apparent Maximum Solubility of SHetA2 NCs and SHetA2 NC-MPs
The apparent maximum solubility profiles of SHetA2 NCs, SHetA2 NC-MPs, unprocessed SHetA2 (i.e., unprocessed drug), and spray dried SHetA2 MPs (i.e., microparticulate amorphous drug) are shown in FIG. 8. […] SHetA2 NC-MPs and spray dried SHetA2 MPs followed a similar dissolution profile after 45 min. […] After 6 h, SHetA2 NCs followed a similar dissolution profile with the other two formulations.

SMILES: CC1(C)CC(C)(C)c2cc(NC(=S)Nc3ccc([N+](=O)[O-])cc3)ccc2S1 [unprocessed SHetA2]
- cumulative percentage of SHetA2 dissolved [1]: 3.51±0.9%
- solubility at 5 min [2]: 0.48 ± 0.11 µg/mL (≈ 1.2 µM)
